ChEMBL document CHEMBL1201862, “PubChem BioAssay data set” (2004)
Calls of active or inactive are those of the source.

Tests used:
Cytochrome P450 2D6 = Cytochrome P450 2D6 (Homo sapiens, UniProt P10635);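 also: CYP2D6 member of a cytochrome P450 panel assay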
Cytochrome P450 2C9 = Cytochrome P450 2C9 (Homo sapiens, UniProt P11712)
Insulin-degrading enzyme [1] = molecular target: T1, Insulin-degrading enzyme (Homo sapiens, UniProt P14735); assay: activators of recombinant IDE enzyme, dose response, counter-screen for IDE activator project, biochemical, fluorescence polarization (AID 588681)
T1 sequence (P14735 whole entry): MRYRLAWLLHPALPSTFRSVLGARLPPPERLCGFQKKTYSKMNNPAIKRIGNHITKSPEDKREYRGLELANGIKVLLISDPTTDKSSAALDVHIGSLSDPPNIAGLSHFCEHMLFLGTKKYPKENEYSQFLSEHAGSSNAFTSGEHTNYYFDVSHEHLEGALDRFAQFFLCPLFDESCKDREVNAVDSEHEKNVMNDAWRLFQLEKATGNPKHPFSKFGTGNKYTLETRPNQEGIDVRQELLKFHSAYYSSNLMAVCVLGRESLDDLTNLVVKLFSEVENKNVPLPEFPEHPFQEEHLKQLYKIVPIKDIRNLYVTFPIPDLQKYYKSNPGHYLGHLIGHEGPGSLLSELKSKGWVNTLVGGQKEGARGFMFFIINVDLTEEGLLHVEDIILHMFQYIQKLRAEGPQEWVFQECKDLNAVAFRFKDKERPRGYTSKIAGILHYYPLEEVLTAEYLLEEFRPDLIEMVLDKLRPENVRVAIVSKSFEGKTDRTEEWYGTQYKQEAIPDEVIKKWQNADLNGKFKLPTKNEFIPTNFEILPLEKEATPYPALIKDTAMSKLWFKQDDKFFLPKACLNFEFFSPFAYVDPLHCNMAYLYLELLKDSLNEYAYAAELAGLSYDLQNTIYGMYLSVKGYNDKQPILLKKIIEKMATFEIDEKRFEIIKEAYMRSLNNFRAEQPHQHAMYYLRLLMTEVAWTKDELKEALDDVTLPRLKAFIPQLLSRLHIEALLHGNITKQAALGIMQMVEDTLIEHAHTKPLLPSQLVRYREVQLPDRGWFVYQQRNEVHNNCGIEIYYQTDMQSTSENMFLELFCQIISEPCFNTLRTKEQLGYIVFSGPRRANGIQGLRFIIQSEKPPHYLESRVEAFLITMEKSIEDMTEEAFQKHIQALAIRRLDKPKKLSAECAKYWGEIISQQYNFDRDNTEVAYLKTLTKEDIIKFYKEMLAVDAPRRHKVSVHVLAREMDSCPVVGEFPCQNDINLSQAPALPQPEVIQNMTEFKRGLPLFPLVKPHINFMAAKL

Insulin-degrading enzyme [2] = molecular target: T1, Insulin-degrading enzyme; assay: activators of endogenous IDE in HEK cells, dose response, cell-based, fluorescence polarization (AID 588439); format: functional
HEK293 [3] = assay: HEK cell cytotoxicity by LDH release, dose response, cytotoxicity control for IDE activator project, fluorescence, HEK cells (AID 588440); format: functional, cell-based, Homo sapiens; conditions: Homo sapiens, HEK293;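 also: cytotoxicity by LDH release measuring loss of membrane integrity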
HEK293 [4] = assay: optical interference in Abeta FP readout, dose response, artefact control for IDE activator project, biochemical, fluorescence polarization (AID 588442); format: functional, cell-based; conditions: Homo sapiens
[5] = HEp-2 cell cytotoxicity, dose response, cytotoxicity control for RSV inhibitor project, HTS (AID 2410); format: functional; conditions: human respiratory syncytial virus
Vero [6] = assay: cells; format: functional, cell-based; conditions: Chlorocebus sabaeus
[7] = molecular target: T2, Heat shock factor protein 1 (Mus musculus, UniProt P38532); assay: inhibition of MG132-induced HSE-luciferase signal, confirmation, cell-based, NIH3T3, luminescence, dose retest (AID 2382); format: functional;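 also: NIH3T3 fibroblasts with HSF1-driven luciferase reporter stressed by proteasome inhibitor MG132; luminescence from HSF1-driven luciferase expression after 8 hours of MG132 stress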
T2 sequence (P38532 whole entry): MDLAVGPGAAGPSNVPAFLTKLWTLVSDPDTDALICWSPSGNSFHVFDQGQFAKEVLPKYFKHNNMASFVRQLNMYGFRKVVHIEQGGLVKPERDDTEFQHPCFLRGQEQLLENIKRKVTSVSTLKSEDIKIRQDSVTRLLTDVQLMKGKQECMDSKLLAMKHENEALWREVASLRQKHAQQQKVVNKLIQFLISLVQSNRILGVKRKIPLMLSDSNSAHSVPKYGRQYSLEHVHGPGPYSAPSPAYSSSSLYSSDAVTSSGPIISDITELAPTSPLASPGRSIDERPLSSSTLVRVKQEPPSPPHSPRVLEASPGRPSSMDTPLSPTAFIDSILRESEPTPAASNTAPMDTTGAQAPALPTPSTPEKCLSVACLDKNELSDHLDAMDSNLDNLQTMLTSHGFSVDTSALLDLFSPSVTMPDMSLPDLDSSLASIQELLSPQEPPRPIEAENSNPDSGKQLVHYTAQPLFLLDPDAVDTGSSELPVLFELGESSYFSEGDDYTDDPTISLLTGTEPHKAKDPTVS

[8] = molecular target: T3, Kappa-type opioid receptor (Homo sapiens, UniProt P41145); format: functional
Beta-galactosidase = Beta-galactosidase (Escherichia coli, UniProt Q8VNN2); format: functional
[9] = molecular target: T3, Kappa-type opioid receptor; format: functional; remark: listed apart in the source
Exodeoxyribonuclease V = molecular target: T4, Exodeoxyribonuclease V (Escherichia coli (strain K12), UniProt P04993+P07648+P08394); assay: E. coli RecBCD inhibitors, dose response, counter-screen for AddAB inhibitor project, absorbance, V66 E. coli, mutant T4 phage (AID 492957); format: functional, cell-based, Escherichia coli str. K-12 substr. MG1655
T4 sequence (P04993 whole entry): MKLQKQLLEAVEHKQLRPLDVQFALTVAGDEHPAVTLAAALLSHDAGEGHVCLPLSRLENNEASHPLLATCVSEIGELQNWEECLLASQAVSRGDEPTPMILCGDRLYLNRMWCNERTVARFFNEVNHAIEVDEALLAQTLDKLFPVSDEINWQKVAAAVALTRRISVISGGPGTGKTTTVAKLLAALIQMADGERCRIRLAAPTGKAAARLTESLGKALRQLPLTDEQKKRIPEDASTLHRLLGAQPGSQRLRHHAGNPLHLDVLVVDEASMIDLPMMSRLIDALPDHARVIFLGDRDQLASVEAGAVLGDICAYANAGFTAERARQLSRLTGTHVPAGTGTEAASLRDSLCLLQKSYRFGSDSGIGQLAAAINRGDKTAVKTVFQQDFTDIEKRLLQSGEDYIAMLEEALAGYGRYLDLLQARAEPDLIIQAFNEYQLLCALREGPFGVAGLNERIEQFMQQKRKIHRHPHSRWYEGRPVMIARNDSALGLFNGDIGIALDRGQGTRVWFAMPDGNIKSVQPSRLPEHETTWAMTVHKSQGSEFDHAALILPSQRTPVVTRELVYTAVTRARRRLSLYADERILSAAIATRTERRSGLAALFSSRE
T4 sequence (P07648 whole entry): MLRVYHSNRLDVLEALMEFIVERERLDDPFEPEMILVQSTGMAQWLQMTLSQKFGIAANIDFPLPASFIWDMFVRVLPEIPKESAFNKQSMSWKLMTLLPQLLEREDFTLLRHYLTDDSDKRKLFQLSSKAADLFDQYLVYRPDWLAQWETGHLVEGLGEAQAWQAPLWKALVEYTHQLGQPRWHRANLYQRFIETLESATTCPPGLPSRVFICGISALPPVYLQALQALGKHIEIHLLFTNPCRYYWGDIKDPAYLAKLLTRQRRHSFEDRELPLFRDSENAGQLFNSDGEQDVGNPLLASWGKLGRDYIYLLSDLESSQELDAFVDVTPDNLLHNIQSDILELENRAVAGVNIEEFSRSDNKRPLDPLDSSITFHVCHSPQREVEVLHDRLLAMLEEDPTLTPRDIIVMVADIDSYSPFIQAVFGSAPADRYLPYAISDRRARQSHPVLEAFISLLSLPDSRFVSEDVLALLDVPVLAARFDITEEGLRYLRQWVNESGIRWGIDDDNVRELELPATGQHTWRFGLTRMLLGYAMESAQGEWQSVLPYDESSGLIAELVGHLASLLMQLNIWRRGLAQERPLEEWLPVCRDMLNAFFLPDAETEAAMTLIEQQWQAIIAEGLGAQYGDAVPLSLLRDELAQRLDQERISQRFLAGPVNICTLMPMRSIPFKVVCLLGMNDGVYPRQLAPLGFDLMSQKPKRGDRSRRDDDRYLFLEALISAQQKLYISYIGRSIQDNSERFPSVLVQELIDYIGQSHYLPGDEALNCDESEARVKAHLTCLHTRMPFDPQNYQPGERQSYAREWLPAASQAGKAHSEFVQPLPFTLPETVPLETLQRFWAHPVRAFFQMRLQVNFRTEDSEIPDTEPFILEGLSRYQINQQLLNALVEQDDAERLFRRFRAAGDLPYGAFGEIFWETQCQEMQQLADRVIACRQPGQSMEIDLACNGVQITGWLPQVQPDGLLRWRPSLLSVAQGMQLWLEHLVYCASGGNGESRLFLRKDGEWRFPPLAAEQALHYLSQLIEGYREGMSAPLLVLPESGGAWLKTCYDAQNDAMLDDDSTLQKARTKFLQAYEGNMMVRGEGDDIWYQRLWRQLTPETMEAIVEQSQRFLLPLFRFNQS
T4 sequence (P08394 whole entry): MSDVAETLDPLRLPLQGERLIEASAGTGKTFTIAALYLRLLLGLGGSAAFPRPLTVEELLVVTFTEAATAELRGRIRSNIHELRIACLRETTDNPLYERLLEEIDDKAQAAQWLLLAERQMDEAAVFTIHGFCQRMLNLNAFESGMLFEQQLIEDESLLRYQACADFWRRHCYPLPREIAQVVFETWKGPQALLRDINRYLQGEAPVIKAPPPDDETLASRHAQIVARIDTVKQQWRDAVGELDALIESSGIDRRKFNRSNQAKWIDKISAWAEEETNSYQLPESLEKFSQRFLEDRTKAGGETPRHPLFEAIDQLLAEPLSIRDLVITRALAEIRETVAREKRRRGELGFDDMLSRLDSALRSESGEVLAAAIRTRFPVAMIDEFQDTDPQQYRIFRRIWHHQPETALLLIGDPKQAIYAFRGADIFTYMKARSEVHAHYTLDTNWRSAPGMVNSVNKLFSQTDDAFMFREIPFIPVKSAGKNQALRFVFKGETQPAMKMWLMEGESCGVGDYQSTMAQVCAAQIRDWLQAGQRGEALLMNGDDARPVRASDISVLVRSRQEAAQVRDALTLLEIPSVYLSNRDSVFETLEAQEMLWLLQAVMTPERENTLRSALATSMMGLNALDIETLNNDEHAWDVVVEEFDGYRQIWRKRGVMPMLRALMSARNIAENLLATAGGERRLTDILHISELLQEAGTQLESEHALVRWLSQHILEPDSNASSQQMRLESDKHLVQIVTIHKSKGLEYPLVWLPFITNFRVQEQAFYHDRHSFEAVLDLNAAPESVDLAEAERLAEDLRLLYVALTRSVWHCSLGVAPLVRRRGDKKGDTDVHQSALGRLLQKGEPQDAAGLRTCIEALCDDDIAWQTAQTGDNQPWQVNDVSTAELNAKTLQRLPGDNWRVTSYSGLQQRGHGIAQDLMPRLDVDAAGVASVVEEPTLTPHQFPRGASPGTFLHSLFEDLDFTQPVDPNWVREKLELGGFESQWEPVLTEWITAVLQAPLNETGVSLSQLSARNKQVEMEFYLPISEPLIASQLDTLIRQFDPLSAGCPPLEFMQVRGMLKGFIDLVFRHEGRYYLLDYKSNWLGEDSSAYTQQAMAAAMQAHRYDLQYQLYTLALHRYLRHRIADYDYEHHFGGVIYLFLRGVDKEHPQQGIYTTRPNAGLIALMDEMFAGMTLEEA

Nonstructural protein 1 = Nonstructural protein 1 (Influenza A virus, UniProt Q194T2); format: functional, Influenza A virus (A/California/07/2009(H1N1))
[10] = Counterscreen for AddAB inhibitors: absorbance-based bacterial cell-based high throughput dose response assay for inhibitors of bacterial viability. [Related pubchem assays (depositor defined):AID435030, AID449728, AID449731, AID488942, AID488955, AID488956]; format: functional
Vero [11] = assay: Vero cell cytotoxicity, cytotoxicity control for flavivirus capping enzyme inhibitors (AID 588742); format: functional; conditions: Chlorocebus sabaeus
Vero [12] = assay: cells; format: functional; conditions: Chlorocebus sabaeus
[13] = molecular target: Glucose-6-phosphate 1-dehydrogenase (Homo sapiens, UniProt P11413); assay: human G6PD enzyme inhibitors, dose response, selectivity assay for P. falciparum G6PD inhibitor project, biochemical, fluorescence (AID 504792); format: functional
Chain of Glucose-6-phosphate 1-dehydrogenase (P11413 whole entry): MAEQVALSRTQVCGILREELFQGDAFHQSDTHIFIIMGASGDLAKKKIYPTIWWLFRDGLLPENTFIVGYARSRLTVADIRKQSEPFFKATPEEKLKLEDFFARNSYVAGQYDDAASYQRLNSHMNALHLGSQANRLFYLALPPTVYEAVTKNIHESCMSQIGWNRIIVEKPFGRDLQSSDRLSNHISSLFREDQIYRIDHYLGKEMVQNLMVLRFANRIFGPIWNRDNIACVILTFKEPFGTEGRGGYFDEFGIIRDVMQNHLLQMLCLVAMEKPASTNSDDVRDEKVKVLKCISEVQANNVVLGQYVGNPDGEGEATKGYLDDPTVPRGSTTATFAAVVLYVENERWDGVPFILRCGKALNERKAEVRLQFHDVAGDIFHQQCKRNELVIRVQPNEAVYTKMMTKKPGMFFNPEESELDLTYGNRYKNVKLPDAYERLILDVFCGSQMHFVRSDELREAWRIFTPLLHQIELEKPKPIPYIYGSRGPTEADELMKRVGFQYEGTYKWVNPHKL

Chain of Cytochrome P450 2C9 (P11712 whole entry): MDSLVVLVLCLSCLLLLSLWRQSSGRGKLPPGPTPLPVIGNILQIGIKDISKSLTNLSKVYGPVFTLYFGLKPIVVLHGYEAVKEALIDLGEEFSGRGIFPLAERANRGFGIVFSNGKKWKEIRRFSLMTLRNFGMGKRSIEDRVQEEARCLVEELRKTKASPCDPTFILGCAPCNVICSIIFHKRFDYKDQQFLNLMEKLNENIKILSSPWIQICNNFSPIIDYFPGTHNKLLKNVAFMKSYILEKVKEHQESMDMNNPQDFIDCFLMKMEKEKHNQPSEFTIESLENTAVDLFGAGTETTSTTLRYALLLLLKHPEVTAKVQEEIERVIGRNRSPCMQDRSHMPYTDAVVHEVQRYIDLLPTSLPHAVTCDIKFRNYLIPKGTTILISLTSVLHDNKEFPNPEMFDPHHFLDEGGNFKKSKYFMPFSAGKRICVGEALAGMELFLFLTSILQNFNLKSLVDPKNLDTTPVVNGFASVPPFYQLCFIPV
T3 sequence (P41145 whole entry): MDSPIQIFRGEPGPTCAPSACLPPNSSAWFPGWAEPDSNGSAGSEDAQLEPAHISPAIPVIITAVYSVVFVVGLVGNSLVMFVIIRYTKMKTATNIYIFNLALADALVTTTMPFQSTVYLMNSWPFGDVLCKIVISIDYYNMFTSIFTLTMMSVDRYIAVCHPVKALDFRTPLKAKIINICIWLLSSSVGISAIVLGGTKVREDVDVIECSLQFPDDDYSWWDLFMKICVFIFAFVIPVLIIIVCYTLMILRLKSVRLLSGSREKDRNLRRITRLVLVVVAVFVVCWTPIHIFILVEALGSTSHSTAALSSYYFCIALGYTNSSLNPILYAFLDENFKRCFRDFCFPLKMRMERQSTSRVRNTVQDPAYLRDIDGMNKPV
Chain of Nonstructural protein 1 (Q194T2 whole entry): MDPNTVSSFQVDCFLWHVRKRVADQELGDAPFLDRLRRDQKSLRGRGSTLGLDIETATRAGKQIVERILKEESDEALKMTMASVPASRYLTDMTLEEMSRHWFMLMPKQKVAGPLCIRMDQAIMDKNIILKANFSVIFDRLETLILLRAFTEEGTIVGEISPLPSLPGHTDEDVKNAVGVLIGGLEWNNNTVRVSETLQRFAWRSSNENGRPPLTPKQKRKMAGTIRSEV
Chain of Cytochrome P450 2D6 (P10635 whole entry): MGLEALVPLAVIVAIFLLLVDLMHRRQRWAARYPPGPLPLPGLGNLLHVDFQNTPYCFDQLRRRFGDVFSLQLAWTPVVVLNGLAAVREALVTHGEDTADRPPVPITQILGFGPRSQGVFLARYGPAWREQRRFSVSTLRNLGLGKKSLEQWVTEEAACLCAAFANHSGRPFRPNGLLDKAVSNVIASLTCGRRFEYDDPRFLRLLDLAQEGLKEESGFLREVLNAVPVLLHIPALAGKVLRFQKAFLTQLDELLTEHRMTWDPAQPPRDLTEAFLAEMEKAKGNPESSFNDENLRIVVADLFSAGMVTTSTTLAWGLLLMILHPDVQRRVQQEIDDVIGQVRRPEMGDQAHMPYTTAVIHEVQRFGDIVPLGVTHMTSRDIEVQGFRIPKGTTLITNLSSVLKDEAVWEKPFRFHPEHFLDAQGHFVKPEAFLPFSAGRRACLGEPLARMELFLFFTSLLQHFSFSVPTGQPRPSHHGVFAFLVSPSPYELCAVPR
Chain of Beta-galactosidase (Q8VNN2 whole entry): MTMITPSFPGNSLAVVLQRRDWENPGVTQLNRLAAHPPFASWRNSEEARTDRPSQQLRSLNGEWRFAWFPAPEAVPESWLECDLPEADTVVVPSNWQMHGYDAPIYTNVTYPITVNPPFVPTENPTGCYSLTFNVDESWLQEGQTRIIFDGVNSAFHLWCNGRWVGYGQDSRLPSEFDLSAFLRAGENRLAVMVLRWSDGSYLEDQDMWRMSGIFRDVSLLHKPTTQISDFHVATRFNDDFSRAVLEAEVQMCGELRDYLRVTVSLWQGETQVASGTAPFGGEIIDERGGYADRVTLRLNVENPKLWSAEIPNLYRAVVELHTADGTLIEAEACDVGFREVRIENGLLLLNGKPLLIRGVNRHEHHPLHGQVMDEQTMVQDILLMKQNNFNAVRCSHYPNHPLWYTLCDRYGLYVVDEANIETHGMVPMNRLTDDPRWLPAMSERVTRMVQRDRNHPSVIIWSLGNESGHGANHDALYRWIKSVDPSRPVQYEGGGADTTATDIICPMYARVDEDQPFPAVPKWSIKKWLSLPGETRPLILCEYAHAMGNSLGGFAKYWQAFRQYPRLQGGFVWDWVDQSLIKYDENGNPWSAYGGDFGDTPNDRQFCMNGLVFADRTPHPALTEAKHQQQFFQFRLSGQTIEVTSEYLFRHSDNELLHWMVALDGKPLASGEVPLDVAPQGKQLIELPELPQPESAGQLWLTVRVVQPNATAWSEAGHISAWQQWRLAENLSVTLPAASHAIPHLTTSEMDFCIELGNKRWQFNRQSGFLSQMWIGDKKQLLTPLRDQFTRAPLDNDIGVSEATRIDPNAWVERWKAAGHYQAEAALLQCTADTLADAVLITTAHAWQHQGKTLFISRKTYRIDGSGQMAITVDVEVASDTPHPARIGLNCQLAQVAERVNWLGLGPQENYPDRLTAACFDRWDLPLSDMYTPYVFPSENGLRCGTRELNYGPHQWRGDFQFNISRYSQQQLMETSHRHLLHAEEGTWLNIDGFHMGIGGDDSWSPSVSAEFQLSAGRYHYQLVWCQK

CCN1C(=O)/C(=C2\SC(N3CCCCC3)=NC2=O)c2ccccc21
AC50 (Cytochrome P450 2D6): 3.16 µM (inconclusive)
AC50 (Cytochrome P450 2C9): inconclusive

CSc1nc(Cl)cc(N(CCO)CCO)n1
AC50 (Cytochrome P450 2C9): inconclusive

CCn1c(=O)c([N+](=O)[O-])c(NCc2ccc3c(c2)OCO3)c2ccccc21
EC50 (Insulin-degrading enzyme [1]): > 54.7 µM (inactive)
EC50 (Insulin-degrading enzyme [2]): > 54.7 µM (inactive)
IC50 (HEK293 [3]): > 89.2 µM (inactive)
EC50 (HEK293 [4]): > 55.9 µM (inactive)

CN(Cc1nnc(S)n1C)S(=O)(=O)c1ccccc1
AC50 (Cytochrome P450 2C9): inconclusive

O=C(O)c1cc(-c2ccc3ccccc3c2)nc2ccc(F)cc12
CC50 [5]: 12.1 µM (active)
IC50 (Vero [6]): > 25 µM (active)
IC50 (cells): 19.2 µM (active)

O=C(CSC1=NNC(c2ccccn2)S1)Nc1ccccc1 (stereo not given)
EC50 [7]: 3.04 µM (active)
IC50 [8]: > 31.5 µM (inactive)
EC50 (Beta-galactosidase): > 31.5 µM (inactive)
IC50 [9]: > 32 µM
IC50 (Exodeoxyribonuclease V): > 118 µM (inactive)
IC50 (Nonstructural protein 1): 0.986 µM (active)
IC50 [10]: > 118 µM (inactive)

CN=c1ccc(Br)cc(C(=O)/C=C/c2cccc(Cl)c2Cl)c1O
CC50 (Vero [11]): 18 µM (active)
IC50 (Vero [6]): > 25 µM (active)
CC50 (Vero [12]): 9.23 µM (active)

O=C1Nc2ccccc2C2=NC(CN3CCN(c4cccc(Cl)c4)CC3)CN12 (stereo not given)
AC50 (Cytochrome P450 2C9): inconclusive

CC(=O)Nc1cc([N+](=O)[O-])ccc1OCc1ccccc1
IC50 [13]: > 80 µM (inactive)

O=C(O)CC1SC(N/N=C/c2ccccn2)=NC1=O (stereo not given)
IC50 (Exodeoxyribonuclease V): > 118 µM (inactive)
IC50 [10]: > 118 µM (inactive)
